SMILES strings stand for the structures. pIC50: −log10 of the molar value. Where a name gives a salt, the structure may show the parent alone. Read-outs that look alike come from different tables or passages of the source.

One data set concerns K562 leukemia cells. The experiment in a line: MTT assay, in vitro inhibitory activity on cells. Format: cell-based. As to conditions: Homo sapiens, typically 48 hours, read-out: IC50 K562 Chronic myelogenous leukemia cells. The text has this: (§1) In this example, MTT assay was used to detect in vitro inhibitory activity of the compounds prepared according to the above examples on the cells.
(§2) Dimethyl sulfoxide (DMSO) is capable of dissolving formazan in cells, and absorbance value can be measured at a wavelength of 490 nm by an enzyme-linked immunometric meter, which reflects the number of living cells. Within a certain range of the number of cells, the amount of MTT crystals formed is proportional to the number of living cells.
(§3) 2. Culturing in a 37° C., 5% CO2 incubator and keeping the cells adhering to the walls of the wells.
(§4) 4. Carefully removing the supernatant, gently washing with PBS and discarding the supernatant again.
(§5) 6. Terminating culturing and carefully discarding the medium in each well. 7. Adding 150 μl dimethyl sulfoxide into each well, shaking for 10 minutes at low speed in a shaker, to make crystals fully dissolved.
(§6) 8. Measuring the absorbance of each well at 490 nm by an enzyme-linked immunometric meter.
A general note: Formazan colour is commonly taken as a measure of viable cells.

Data set [1] deals with MDA-MB-231 human breast cancer cells. As to the kind of experiment: MTT assay, in vitro inhibitory activity on cells. As to conditions: typically 48 hours. Format: cell-based.
Text: as §1, §2, §3, §4, §5, §6

Data set [2] has as its system Saos-2 human osteosarcoma cells. The experiment in a line: MTT assay, in vitro inhibitory activity on cells. As to conditions: typically 48 hours. Format: cell-based.
Text: as §1, §2, §3, §4, §5, §6

Data set [3] relates to Ovcar-3 human ovarian cancer cells. The experiment in a line: MTT assay, in vitro inhibitory activity on cells. Format: cell-based. As to conditions: typically 48 hours.
Text: as §1, §2, §3, §4, §5, §6

A short description of data set [4]: Pharmacokinetic studies in male SD rats. The settings on record: rat, plasma; for MRT inf: read-out: MRT(0-∞). Format: in vivo. How it is done:
The compound prepared in Example 27 of the present invention was illustratively selected for this experiment. The pharmaceutical formulation for oral administration was made by dissolving the compound in physiological saline to prepare 3 mg/ml of suspension. The pharmaceutical formulation for caudal vein injection was made by using a mixed solution of DMSO, polyoxyethylene castor oil and physiological saline in the volume ratio of 1:30:69 to prepare 2.5 mg/ml of solution.
Male SD rats, each group of three, weighing 150 g-250 g, were provided by Shanghai SIPPR-BK Laboratory Animal Co. Ltd., China. The tested rats were acclimatized to the environment for 2-4 days prior to the experiment, and fasted for 8-12 hours before administration. The rats drank water freely 2 hours after administration, and were fed food 4 hours after administration.
1) Taking blank plasma (zero-hour sample) after the SD rats were fasted but allowed drinking water freely for 12 hours;
2) Administering to three rats in Step 1) the compound prepared in Example 27 at 15 mg/kg by gavage (Intragastric administration, IG);
administering to another three rats in Step 1) the compound prepared in Example 27 at 3 mg/kg by caudal vein (Intravenous administration, IV);
3) Collecting sequentially blood from retinal venous plexus of the rats at 10 min, 30 min, 1 h, 2 h, 4 h, 6 h, 8 h, 10 h, 24 h after gavage administration, placing into the heparin-coated EP tubes, taking the upper plasma after centrifuging for 5 min at 8000 rpm/min, and storing at −20° C. until LC-MS/MS analysis;
4) Calculating the pharmacokinetic parameters using WinNonlin software according to the blood concentration—time data obtained from Step 3), shown in Table 4;
5) Collecting sequentially blood from retinal venous plexus of the rats at 5 min, 15 min, 30 min, 1 h, 2 h, 4 h, 8 h, 24 h after caudal vein administration, placing into the heparin-coated EP tubes, taking the upper plasma after centrifuging for 5 min at 8000 rpm/min, and storing at −20° C. until LC-MS/MS analysis;
6) Calculating the pharmacokinetic parameters using WinNonlin software according to the blood concentration—time data obtained from Step 5), shown in Table 4.

By pIC50 is commonly meant −log10 of the IC50, conventionally taken in molar units. As to `Cc1ccc(NC(=O)Nc2ccc(CN3CCN(C)CC3)c(C(F)(F)F)c2)cc1C#Cc1cnc2[nH]ncc2c1` [Example 1, N-[3-((1H-pyrazolo[3,4-b]pyridin-5-yl)ethynyl)-4-methylphenyl]-N′-[4-((4-methylpiperazin-1-yl)methyl)-3-trifluoromethylphenyl]urea], the values for the pIC50 (in the data set on K562 leukemia cells; in data set [1]) were 5.38 and 5.55, respectively.

Consider `Cc1ccc(NC(=O)Nc2ccc(CN3CCN(C)CC3)c(C(F)(F)F)c2)cc1C#Cc1cnc2[nH]ccc2n1` [Example 2, N-[3-((1H-pyrrolo[2,3-b]pyrazin-5-yl)ethynyl)-4-methylphenyl]-N′-[4-((4-methylpiperazin-1-yl)methyl)-3-trifluoromethylphenyl]urea], for which the pIC50 was 6.57 in data set [2], 5.69 in the data set on K562 leukemia cells, 6.96 in data set [1] and 5.51 in data set [3].

With `CNc1nc2cc(C#Cc3cc(NC(=O)Nc4ccc(CN5CCN(C)CC5)c(C(F)(F)F)c4)ccc3C)ccn2n1` [Example 7], the pIC50 with K562 leukemia cells was 5.29.

Take `Cc1ccc(NC(=O)Nc2ccc(CN3CCN(C)CC3)c(C(F)(F)F)c2)cc1C#Cc1ccn2nc(N(C)C)nc2c1` [Example 8]: the negative logarithm of the IC50 (pIC50) in the data set on K562 leukemia cells was 6.38.

Take `Cc1ccc(C(=O)Nc2ccc(CN3CCN(C)CC3)c(C(F)(F)F)c2)cc1C#Cc1cn(C)c(-c2ncc[nH]2)n1` [Example 10, 4-methyl-3-((1-methyl-1H,1′H-[2,2′-diimidazol]-4-yl)ethynyl)-N-[4-((4-methylpiperazin-1-yl)methyl)-3-trifluoromethylphenyl]benzamide]: the pIC50 is 6.06 in data set [2], 5.72 in the data set with K562 leukemia cells, 5.85 in data set [1] and 5.50 in data set [3].

For the compound `Cc1ccc(C(=O)Nc2ccc(CN3CCN(C)CC3)c(C(F)(F)F)c2)cc1C#Cc1cn(C)c(-c2ncc([N+](=O)[O-])[nH]2)n1` [Example 11, 4-methyl-3-((1-methyl-5′-nitro-1H,1′H-[2,2′-diimidazol]-4-yl)ethynyl)-N-[4-((4-methylpiperazin-1-yl)methyl)-3-trifluoromethylphenyl]benzamide], the pIC50 in data set [2] was 5.57; in the data set with K562 leukemia cells, 5.50; in data set [1] it was 6.44; in data set [3], 5.00.

As to `Cc1ccc(NC(=O)Nc2ccc(CN3CC[C@@H](N(C)C)C3)c(F)c2)cc1C#Cc1cn(C)c(-c2ncc(C(F)(F)F)[nH]2)n1` [Example 13, N-[4-methyl-3-((1-methyl-5′-trifluoromethyl-1H,1′H-[2,2′-diimidazol]-4-yl)ethynyl)phenyl]-N′—(R)-[4-((3-dimethylaminotetrahydropyrrol-1-yl)methyl)-3-fluorophenyl]urea], the pIC50 is 6.28 with K562 leukemia cells and 6.54 in data set [1].

In the case of `Cc1ccc(NC(=O)Nc2ccc(CN3CCN(C)CC3)c(C(F)(F)F)c2)cc1C#Cc1cn(C)c(-c2ncc(C(F)(F)F)[nH]2)n1` [Example 14, N-[4-methyl-3-((1-methyl-5′-trifluoromethyl-1H,1′H-[2,2′-diimidazol]-4-yl)ethynyl)phenyl]-N′-[4-((4-methylpiperazin-1-yl)methyl)-3-trifluoromethylphenyl]urea], the pIC50 in the data set on K562 leukemia cells is 6.80; in data set [1], 5.92.

With `Cc1ccc(NC(=O)c2ccc(CN3CCN(CCO)CC3)c(C(F)(F)F)c2)cc1C#Cc1cn(C)c(-c2ncc(C(F)(F)F)[nH]2)n1` [Example 15], the pIC50 was 6.43 with K562 leukemia cells and 6.25 in data set [1].

As for `Cc1cn(-c2cc(NC(=O)c3ccc(F)c(C#Cc4cnc(-c5nc[nH]n5)n4C)c3)cc(C(F)(F)F)c2)cn1` [Example 16, 3-[1-methyl-2-([1,2,4]-1H-triazol-3-yl)imidazol-5-yl]ethynyl-4-fluoro-N-[3-trifluoromethyl-5-(4-methylimidazol-1-yl)phenyl]benzamide], the pIC50 was 5.94 in data set [2], 5.90 in data set [1] and 5.33 in data set [3].

With `CNC(=O)c1cc(Oc2cc(NC(=O)c3ccc(F)c(C#Cc4cnc(-c5nc[nH]n5)n4C)c3)cc(C(F)(F)F)c2)ccn1` [Example 17, 4-fluoro-3-[1-methyl-2-([1,2,4]-1H-triazol-3-yl)imidazol-5-yl]ethynyl-N-[3-trifluoromethyl-5-(2-N-methylcarbamoylpyridin-4-yl)oxy]phenylbenzamide], the negative logarithm of the IC50 (pIC50) in data set [2] is 6.19; in data set [1] it was 6.01; in data set [3] it was 5.40.

In the case of `Cc1ccc(C(=O)Nc2ccc(CN3CC[C@@H](N(C)C)C3)c(C(F)(F)F)c2)cc1C#Cc1ccc(-c2ncc(C(F)(F)F)[nH]2)nc1` [Example 20, 4-methyl-3-((2-(5-trifluoromethyl-1H-imidazol-2-yl)pyridin-5-yl)ethynyl)-N—[(R)-4-((3-dimethylaminotetrahydropyrrol-1-yl)methyl)-3-trifluoromethylphenyl]benzamide], the negative logarithm of the IC50 (pIC50) in the data set on K562 leukemia cells is 5.66; in data set [1] it was 5.33.

Take `Cc1ccc(NC(=O)c2ccc(CN3CCN(C)CC3)cc2)cc1C#Cc1ccc(-c2ncc(C#N)[nH]2)nc1` [Example 21]: the pIC50 in the data set on K562 leukemia cells was 5.44; in data set [1] it was 5.69.

For `Cc1ccc(C(=O)Nc2ccc(CN3CC[C@H](N(C)C)C3)c(C(F)(F)F)c2)cc1C#Cc1ccc(-c2ncc(F)[nH]2)nc1` [Example 22, 4-methyl-3-((2-(5-fluoro-1H-imidazol-2-yl)pyridin-5-yl)ethynyl)-N-[(S)-4-((3-dimethylaminotetrahydropyrrol-1-yl)methyl)-3-trifluoromethylphenyl]benzamide], the pIC50 in the data set with K562 leukemia cells was 5.39; in data set [1], 5.94.

Regarding `Cc1ccc(NC(=O)Nc2ccc(CN3CCN(C)CC3)c(C(F)(F)F)c2)cc1C#Cc1ccc(-c2ncc(C#N)[nH]2)nc1` [Example 23, N-[3-(2-(5-acetonitrile-1H-imidazol-2-yl)pyridin-5-yl)ethynyl-4-methylphenyl]-N′-[3-trifluoromethyl-4-(4-methylpiperazin-1-ylmethyl)phenyl]urea], the pIC50 with K562 leukemia cells was 5.48.

On to `Cc1cn(-c2cc(C(=O)Nc3ccc(F)c(C#Cc4ccc(-c5ncc(C(F)(F)F)[nH]5)nc4)c3)cc(C(F)(F)F)c2)cn1` [Example 24, 3-trifluoromethyl-5-(4-methylimidazol-1-yl)-N-[3-(2-(5-trifluoromethyl-1H-imidazol-2-yl)pyridin-5-yl)ethynyl-4-fluorophenyl]-benzamide], for which the pIC50 with K562 leukemia cells was 6.03; in data set [1], 5.93.

With `Cc1ccc(C(=O)Nc2ccc(CN3CCN(C)CC3)c(C(F)(F)F)c2)cc1C#Cc1ccc(-c2nc[nH]n2)nc1` [Example 25, 4-methyl-3-((2-(1,2,4-triazol-3-yl)pyridin-5-yl)ethynyl)-N-[4-((4-methylpiperazin-1-yl)methyl)-3-trifluoromethylphenyl]benzamide], the pIC50 is 5.45 in the data set with K562 leukemia cells and 5.54 in data set [1].

Turning to `CNC(=O)c1cc(Oc2ccc(NC(=O)c3ccc(C)c(C#Cc4ccc(-c5nc[nH]n5)nc4)c3)cc2)ccn1` [Example 26, 4-methyl-3-[2-([1,2,4]-1H-triazol-3-yl)pyridin-5-yl]ethynyl-N-[(2-N-methylcarbamoylpyridin-4-yl)oxy]phenylbenzamide], in the data set on K562 leukemia cells, the pIC50 was 5.23.

One may read the AUC(0-inf) as the area under the concentration-time curve extrapolated to infinity. A low value points to low exposure. A word on the AUC(0-t): it is exposure summed from dosing to a finite time, without extrapolation to infinity. The Cmax is the peak of the concentration-time curve. A word on the half-life: it is the time in which the quantity being followed falls by half. A low value points to fast loss. As usually defined, the bioavailability is the share of a dose that reaches the circulation, judged against a reference dose that is usually intravenous. By Tmax is commonly meant the time from dosing to the highest level. Take `Cc1ccc(C(=O)Nc2ccc(CN3CCN(C)CC3)c(C(F)(F)F)c2)cc1C#Cc1cnc2[nH]ccc2n1` [Example 27, hydrochloride]: in data set [4] (iv, I.V. 3 mg/kg), the AUC(0-inf) came to 3380 ng·h/mL, the exposure AUC(0-t) was found to be 3300 ng·h/mL, the peak level (Cmax) was 1270 ng/mL and the half-life was 4.93 h. Further, the MRT inf in data set [4] (iv, I.V. 3 mg/kg) was found to be 4.92 h. In addition, in data set [4] (oral, I.G. 15 mg/kg vs I.V. 3 mg/kg, read-out: F (oral bioavailability)), the bioavailability came to 32.6%. In data set [4] (po, I.G. 15 mg/kg), the area under the curve AUC(0-inf) came out at 5220 ng·h/mL, the AUC(0-t) came out at 5370 ng·h/mL, the highest level (Cmax) was 376 ng/mL and the Tmax was determined as 7.33 h. In data set [4] (po, I.G. 15 mg/kg), the half-life was 4.1 h and the MRT inf was 7.71 h.
